These compounds were tested against Tyk2 (Homo sapiens (Human), UniProt P29597) (assay: pSTAT4 Cell Assay (MSD, NK92 cells)). Conditions: not given.
Type: cell-based
Method: The inhibitory potency of compounds of the disclosure against the Tyk2 kinase activity on STAT4 was evaluated using an MSD-platform plate-based assay format. NK92 cells natively expressing STAT4 and Tyk2 were serum-starved to reduce background phosphorylation levels, then cells were treated compounds for 1 hr with a 10-point four-fold dilution series starting at 10 μM. Cells were then stimulated with 30 ng/mL […] for 15 minutes. […] The data were normalized and the percent activity versus log concentration of compound were fitted with a 4-parameter logistic model to generate to generate IC50 curves.

Chain of Tyk2 (P29597 whole entry): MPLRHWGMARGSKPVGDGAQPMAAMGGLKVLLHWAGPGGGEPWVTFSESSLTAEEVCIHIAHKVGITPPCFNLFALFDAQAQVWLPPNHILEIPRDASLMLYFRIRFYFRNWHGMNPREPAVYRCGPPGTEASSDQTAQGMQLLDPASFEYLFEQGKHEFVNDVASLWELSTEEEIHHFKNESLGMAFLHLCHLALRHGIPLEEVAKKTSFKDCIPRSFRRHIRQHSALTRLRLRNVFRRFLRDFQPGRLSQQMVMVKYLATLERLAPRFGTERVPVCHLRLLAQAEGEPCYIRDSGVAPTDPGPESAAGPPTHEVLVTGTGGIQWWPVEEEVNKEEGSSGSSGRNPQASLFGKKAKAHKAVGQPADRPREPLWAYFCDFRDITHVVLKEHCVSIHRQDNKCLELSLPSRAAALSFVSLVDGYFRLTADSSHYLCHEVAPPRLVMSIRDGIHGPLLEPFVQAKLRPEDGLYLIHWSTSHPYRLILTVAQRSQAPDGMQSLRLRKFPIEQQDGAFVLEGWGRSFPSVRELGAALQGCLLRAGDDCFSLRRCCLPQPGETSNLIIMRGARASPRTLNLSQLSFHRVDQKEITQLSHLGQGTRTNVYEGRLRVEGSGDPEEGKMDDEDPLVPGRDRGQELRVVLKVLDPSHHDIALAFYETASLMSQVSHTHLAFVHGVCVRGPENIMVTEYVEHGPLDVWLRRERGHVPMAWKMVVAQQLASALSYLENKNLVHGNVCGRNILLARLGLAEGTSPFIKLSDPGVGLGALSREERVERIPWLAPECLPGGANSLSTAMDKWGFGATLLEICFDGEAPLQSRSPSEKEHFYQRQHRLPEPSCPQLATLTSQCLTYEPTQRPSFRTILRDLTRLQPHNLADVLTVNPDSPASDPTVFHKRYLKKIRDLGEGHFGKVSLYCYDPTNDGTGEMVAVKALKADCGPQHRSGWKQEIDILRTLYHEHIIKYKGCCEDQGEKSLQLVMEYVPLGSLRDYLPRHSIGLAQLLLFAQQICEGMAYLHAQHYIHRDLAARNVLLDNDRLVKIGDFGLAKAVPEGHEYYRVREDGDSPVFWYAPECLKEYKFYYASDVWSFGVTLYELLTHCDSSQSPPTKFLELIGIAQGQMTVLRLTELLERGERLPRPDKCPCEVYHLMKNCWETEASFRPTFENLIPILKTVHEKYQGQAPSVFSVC

**Q.** CN1CCc2sc(-c3cnc(NC=O)cc3Nc3ccnc(C(C)(F)F)n3)nc2C1 [Example 796, N-(4-((2-(1,1-difluoroethyl)pyrimidin-4-yl)amino)-5-(5-methyl-4,5,6,7-tetrahydrothiazolo[4,5-c]pyridin-2-yl)pyridin-2-yl)formamide] was tested. Which IC50 did it give?
**A.** 10 to 100 nM

**Q.** For CC(=O)Nc1cc(Nc2cc(C)nc(C(C)(F)F)n2)c(-c2ccn(C(F)F)n2)cn1 [Example 811, N-(4-((2-(1,1-difluoroethyl)-6-methylpyrimidin-4-yl)amino)-5-(1-(difluoromethyl)-1H-pyrazol-3-yl)pyridin-2-yl)acetamide], which IC50 is on record?
**A.** 10 to 100 nM

**Q.** How did the IC50 turn out when CC(=O)Nc1cc(Nc2ccnc(C(C)(F)F)n2)c(-c2cnc(OC(F)F)cn2)cn1 [Example 854, N-(4-((2-(1,1-difluoroethyl)pyrimidin-4-yl)amino)-5-(5-(difluoromethoxy)pyrazin-2-yl)pyridin-2-yl)acetamide] was run?
**A.** 10 to 100 nM

**Q.** Which IC50 does the source give for CCc1cc(Nc2cc(NC(C)=O)ncc2-c2cnc(CN3CCOCC3)cn2)nc(C(C)(F)F)n1 [Example 899, N-(4-((2-(1,1-difluoroethyl)-6-ethylpyrimidin-4-yl)amino)-5-(5-(morpholinomethyl)pyrazin-2-yl)pyridin-2-yl)acetamide] here?
**A.** 10 to 100 nM

**Q.** CCc1cc(Nc2cc(NC(C)=O)ncc2-c2ccc(CN3CCCC3)cn2)nc(C(C)(F)F)n1 [Example 901, N-(4′-((2-(1,1-difluoroethyl)-6-ethylpyrimidin-4-yl)amino)-5-(pyrrolidin-1-ylmethyl)-[2,3′-bipyridin]-6′-yl)acetamide] was tested. Which IC50 did it give?
**A.** ≤ 10 nM

**Q.** How did the IC50 turn out when CCc1cc(Nc2cc(NC(C)=O)ncc2-c2ccc(CN3C[C@@H]4C[C@H]3CO4)cn2)nc(C(C)(F)F)n1 [Example 902, N-(5-(((1S,4S)-2-oxa-5-azabicyclo[2.2.1]heptan-5-yl)methyl)-4′-((2-(1,1-difluoroethyl)-6-ethylpyrimidin-4-yl)amino)-[2,3′-bipyridin]-6′-yl)acetamide] was run?
**A.** ≤ 10 nM

**Q.** CCc1cc(Nc2cc(NC(C)=O)ncc2-c2ncc(CN3CCCC3)cn2)nc(C(C)(F)F)n1 [Example 903, N-(4-((2-(1,1-difluoroethyl)-6-ethylpyrimidin-4-yl)amino)-5-(5-(pyrrolidin-1-ylmethyl)pyrimidin-2-yl)pyridin-2-yl)acetamide] was tested. Which IC50 did it give?
**A.** 100 to 1000 nM

**Q.** CCc1cc(Nc2cc(NC(C)=O)ncc2-c2ncc(CN3CCCC3)cc2F)nc(C(C)(F)F)n1 [Example 904, N-(4′-((2-(1,1-difluoroethyl)-6-ethylpyrimidin-4-yl)amino)-3-fluoro-5-(pyrrolidin-1-ylmethyl)-[2,3′-bipyridin]-6′-yl)acetamide] was tested. Which IC50 did it give?
**A.** ≤ 10 nM

**Q.** CCc1cc(Nc2cc(NC(C)=O)ncc2-c2cc(CN3C[C@@H]4C[C@H]3CO4)ncn2)nc(C(C)(F)F)n1 [Example 905, N-(5-(6-(((1S,4S)-2-oxa-5-azabicyclo[2.2.1]heptan-5-yl)methyl)pyrimidin-4-yl)-4-((2-(1,1-difluoroethyl)-6-ethylpyrimidin-4-yl)amino)pyridin-2-yl)acetamide] was tested. Which IC50 did it give?
**A.** 10 to 100 nM

**Q.** With CCc1cc(Nc2cc(NC(C)=O)ncc2-c2ccc(F)c(CN3C[C@@H]4C[C@H]3CO4)n2)nc(C(C)(F)F)n1 [Example 906, N-(6-(((1S,4S)-2-oxa-5-azabicyclo[2.2.1]heptan-5-yl)methyl)-4′-((2-(1,1-difluoroethyl)-6-ethylpyrimidin-4-yl)amino)-5-fluoro-[2,3′-bipyridin]-6′-yl)acetamide] as the compound, how does the IC50 read?
**A.** ≤ 10 nM

**Q.** How did the IC50 turn out when CCc1cc(Nc2cc(NC(C)=O)ncc2-c2nccc(CN3C[C@H]4C[C@@H]3CO4)n2)nc(C(C)(F)F)n1 [Example 907, N-(5-(4-(((1R,4R)-2-oxa-5-azabicyclo[2.2.1]heptan-5-yl)methyl)pyrimidin-2-yl)-4-((2-(1,1-difluoroethyl)-6-ethylpyrimidin-4-yl)amino)pyridin-2-yl)acetamide] was run?
**A.** 10 to 100 nM

Same assay, conditions: MSD

**Q.** How did the IC50 turn out when CC(=O)Nc1cc(Nc2cc(C)nc(C34COC(C3)C4)n2)c(-c2ccc(N3CCOCC3)cn2)cn1 [Example 574, N-(4′-((2-(2-oxabicyclo[2.1.1]hexan-4-yl)-6-methylpyrimidin-4-yl)amino)-5-morpholinO[2,3′-bipyridin]-6′-yl)acetamide] was run?
**A.** ≤ 10 nM

**Q.** Which IC50 does the source give for COCc1ccc(-c2cnc(NC(C)=O)cc2Nc2nc(C(C)(F)F)ncc2OC)nc1 [Example 589, N-(4′-((2-(1,1-difluoroethyl)-5-methoxypyrimidin-4-yl)amino)-5-(methoxymethyl)-[2,3′-bipyridin]-6′-yl)acetamide] here?
**A.** ≤ 10 nM

**Q.** With COc1cnc(C(C)(F)F)nc1Nc1cc(NC(C)=O)ncc1-c1ccn(C)n1 [Example 590, N-(4-((2-(1,1-difluoroethyl)-5-methoxypyrimidin-4-yl)amino)-5-(1-methyl-1H-pyrazol-3-yl)pyridin-2-yl)acetamide] as the compound, how does the IC50 read?
**A.** 10 to 100 nM

**Q.** Which IC50 does the source give for COc1nc(-c2cnc(NC(C)=O)cc2Nc2cc(C)nc(C(C)(F)F)n2)nn1C [Example 609, N-(4-((2-(1,1-difluoroethyl)-6-methylpyrimidin-4-yl)amino)-5-(5-methoxy-1-methyl-1H-1,2,4-triazol-3-yl)pyridin-2-yl)acetamide] here?
**A.** 100 to 1000 nM

**Q.** With CC(=O)Nc1cc(Nc2cc(C)nc(C(C)(F)F)n2)c(-c2nn(C)cc2F)cn1 [Example 616, N-(4-((2-(1,1-difluoroethyl)-6-methylpyrimidin-4-yl)amino)-5-(4-fluorO1-methyl-1H-pyrazol-3-yl)pyridin-2-yl)acetamide] as the compound, how does the IC50 read?
**A.** 10 to 100 nM

**Q.** How did the IC50 turn out when CC(=O)Nc1cc(Nc2cc(C)nc(C(C)(F)F)n2)c(-c2ccnc(N(C)C)n2)cn1 [Example 629, N-(4-((2-(1,1-difluoroethyl)-6-methylpyrimidin-4-yl)amino)-5-(2-(dimethylamino)pyrimidin-4-yl)pyridin-2-yl)acetamide] was run?
**A.** ≤ 10 nM

**Q.** With CC(=O)Nc1cc(Nc2cc(C)nc(C(C)(F)F)n2)c(-c2cccc(C3CCCO3)n2)cn1 (stereo not drawn) [Example 639, N-(4′-((2-(1,1-difluoroethyl)-6-methylpyrimidin-4-yl)amino)-6-(tetrahydrofuran-2-yl)-[2,3′-bipyridin]-6′-yl)acetamide] as the compound, how does the IC50 read?
**A.** ≤ 10 nM

**Q.** Which IC50 does the source give for CC(=O)Nc1cc(Nc2ccnc(C(C)(F)F)n2)c(-c2cccc(C(C)(C)C#N)n2)cn1 [Example 653, N-(6-(2-cyanopropan-2-yl)-4′-((2-(1,1-difluoroethyl)pyrimidin-4-yl)amino)-[2,3′-bipyridin]-6′-yl)acetamide] here?
**A.** 10 to 100 nM

**Q.** How did the IC50 turn out when COc1ccnc(-c2cnc(NC(C)=O)cc2Nc2cc(C)nc(C(C)(F)F)n2)n1 [Example 658, N-(4-((2-(1,1-difluoroethyl)-6-methylpyrimidin-4-yl)amino)-5-(4-methoxypyrimidin-2-yl)pyridin-2-yl)acetamide] was run?
**A.** ≥ 1000 nM

**Q.** For COc1nc(-c2cnc(NC(C)=O)cc2Nc2cc(C)nc(C(C)(F)F)n2)ncc1F [Example 659, N-(4-((2-(1,1-difluoroethyl)-6-methylpyrimidin-4-yl)amino)-5-(5-fluorO4-methoxypyrimidin-2-yl)pyridin-2-yl)acetamide], which IC50 is on record?
**A.** ≥ 1000 nM

**Q.** With COCCc1cncc(-c2cnc(NC(C)=O)cc2Nc2cc(C)nc(C(C)(F)F)n2)n1 [Example 664, N-(4-((2-(1,1-difluoroethyl)-6-methylpyrimidin-4-yl)amino)-5-(6-(2-methoxyethyl)pyrazin-2-yl)pyridin-2-yl)acetamide] as the compound, how does the IC50 read?
**A.** 10 to 100 nM

**Q.** Which IC50 does the source give for CC(=O)Nc1cc(Nc2cc(C)nc(C(C)(F)F)n2)c(-c2nccc(N3CCOCC3)n2)cn1 [Example 674, N-(4-((2-(1,1-difluoroethyl)-6-methylpyrimidin-4-yl)amino)-5-(4-morpholinopyrimidin-2-yl)pyridin-2-yl)acetamide] here?
**A.** ≥ 1000 nM

**Q.** With CC(=O)Nc1cc(Nc2cc(C)nc(C(C)(F)F)n2)c(-c2ncc3c(n2)COC3)cn1 [Example 678, N-(4-((2-(1,1-difluoroethyl)-6-methylpyrimidin-4-yl)amino)-5-(5,7-dihydrofuro[3,4-d]pyrimidin-2-yl)pyridin-2-yl)acetamide] as the compound, how does the IC50 read?
**A.** 10 to 100 nM

**Q.** CC(=O)Nc1cc(Nc2cc(C)nc(C(C)(F)F)n2)c(-c2ccc3c(n2)CCOC3)cn1 [Example 679, N-(4-((2-(1,1-difluoroethyl)-6-methylpyrimidin-4-yl)amino)-5-(7,8-dihydrO5H-pyrano[4,3-b]pyridin-2-yl)pyridin-2-yl)acetamide] was tested. Which IC50 did it give?
**A.** ≤ 10 nM

**Q.** How did the IC50 turn out when CC(=O)Nc1cc(Nc2cc(C)nc(C(C)(F)F)n2)c(C2=NC3C(=O)OCC3C=N2)cn1 (stereo not drawn) [Example 682, N-(4-((2-(1,1-difluoroethyl)-6-methylpyrimidin-4-yl)amino)-5-(7-oxO4a,5,7,7a-tetrahydrofuro[3,4-d]pyrimidin-2-yl)pyridin-2-yl)acetamide] was run?
**A.** ≤ 10 nM

**Q.** For CC(=O)Nc1cc(Nc2cc(C)nc(C(C)(F)F)n2)c(-c2cc3n(n2)CCN(C)C3C)cn1 (stereo not drawn) [Example 683, N-(4-((2-(1,1-difluoroethyl)-6-methylpyrimidin-4-yl)amino)-5-(4,5-dimethyl-4,5,6,7-tetrahydropyrazolo[1,5-a]pyrazin-2-yl)pyridin-2-yl)acetamide], which IC50 is on record?
**A.** ≤ 10 nM

**Q.** For CC(=O)Nc1cc(Nc2cc(C)nc(C(C)(F)F)n2)c(-c2nc3c(s2)CN(C)C3)cn1 [Example 684, N-(4-((2-(1,1-difluoroethyl)-6-methylpyrimidin-4-yl)amino)-5-(5-methyl-5,6-dihydrO4H-pyrrolo[3,4-d]thiazol-2-yl)pyridin-2-yl)acetamide], which IC50 is on record?
**A.** ≤ 10 nM

**Q.** How did the IC50 turn out when CC(=O)Nc1cc(Nc2ccnc(C(C)(F)F)n2)c(-c2cnc(C)cn2)cn1 [Example 693, N-(4-((2-(1,1-difluoroethyl)pyrimidin-4-yl)amino)-5-(5-methylpyrazin-2-yl)pyridin-2-yl)acetamide] was run?
**A.** 10 to 100 nM

**Q.** How did the IC50 turn out when CCc1cc(Nc2cc(NC(C)=O)ncc2-c2cc3n(n2)CCN(C)C3)nc(C(C)(F)F)n1 [Example 721, N-(4-((2-(1,1-difluoroethyl)-6-ethylpyrimidin-4-yl)amino)-5-(5-methyl-4,5,6,7-tetrahydropyrazolo[1,5-a]pyrazin-2-yl)pyridin-2-yl)acetamide] was run?
**A.** ≤ 10 nM
